Experimental data taken from US6953814B2, “Natural insect repellant” (Stratacor, Inc., priority 1997, dated 2005).
Read-outs that look alike come from different tables or passages of the source.

Experiments:
[1] = tested on: Aedes aegypti mosquitoes; conditions: 0.31 mg/cm^2; cited from earlier work
[2] = tested on: Aedes aegypti mosquitoes; assay: Mosquito repellency on gauze or polyester film (olfactometer); type: in vivo; conditions: Aedes aegypti, 0.05 h, cotton gauze or polyester film, 0.3 mg/cm^2, 3 minutes after application; read-out: Percent Repellency
Source text: Olfactometer: A Fiensod and […] olfactometer, as modified by Bowen and Davis, measured the host-oriented flight response of female mosquitoes to volatile host emanations (Feinsod, F. M., and […]; An olfactometer for measuring host-seeking behavior of female Aedes aegypti (Diptera: Culicidae); J. Med. Entomol., 15: 282-285, 1979). The olfactometer (approximately 38 cm high) consisted of an upper and lower screened chamber with a closure between the chambers (FIG. 8). A fan placed above the upper chamber drew air through the apparatus at approximately 0.2 m/s. A temperature and humidity controlled chamber (5' wide by 6' long by 8' high) was constructed to house the test subject and the olfactometer. Rearing of Mosquitoes: A second environmental chamber, maintained at 27° C. and 80% humidity, was dedicated to the rearing of Aedes aegypti mosquitoes. […] Assays for Attraction of Mosquitoes to Human Subjects: A group of 30 volunteers, consisting of 14 females and 16 males and ranging in age from 24 to 68 years, was selected from the surrounding civilian population. Individuals were tested for their ability to attract Aedes aegypti mosquitoes contained in the olfactometer. Tests were conducted at a temperature of 27° C. and 50% relative humidity. […] A small fan was placed on top of the upper chamber to cause an air flow from the lower chamber to the upper chamber. A trial began when the closure between the upper and lower chamber was opened in the absence of a human host. […] This trial was repeated twice during a test session to obtain three replicates. Two additional test sessions, at time intervals of at least 1 week, were conducted to obtain at least 8-9 replicates for each of 24 subjects. Of the remaining 6 subjects, 3 were tested on two separate occasions for a total of 6 replicates per subject; 3 were tested on one occasion for a total of 3 replicates per subject. A total of 254 tests were conducted. Test compounds were dissolved in acetone or ethanol at a concentration of 150 mg/5 cc. Ethanol solutions of carboxylic acids were prepared just prior to use. Five hundred microliters of these solutions were applied to a 50 cm^2 circular area of a single layer of cotton gauze (Curity Curad gauze, Futuro Inc., Milford, Ohio) or nonwoven polyester film ([…], Inc.). The resultant dose was 0.3 mg/cm^2. […] The cup was attached to the bottom of the olfactometer (FIG. 8) so that air flowed through the stainless steel screen of the cup, through the treated gauze or film, and through the olfactometer. A volunteer's forearm was placed under the cup, so that air drawn into the cup and olfactometer was laden with human skin emanations. Tests were conducted as described in the preceding paragraph, “Assays for attraction of mosquitoes to human subjects”. Percent repellency was determined from the fraction of mosquitoes entering the lower chamber over a seven minute period. This assay is an approximate measure of the intrinsic repellency of a compound. Good repellency in this test is a necessary, but not sufficient, condition for good repellency on skin. Mosquito repellents must produce a vapor over the skin surface to confuse the host seeking behavior of the insect. However, volatilization must not be so great that the repellent action rapidly dissipates. Since volatilization from the skin will be different from an inanimate surface, skin tests are necessary to confirm that a compound will be a practical repellent.

[3] = tested on: Aedes aegypti mosquitoes; assay: Mosquito repellency on skin (olfactometer, human forearm); type: in vivo; conditions: for repellency immediately after application to skin, compared to DEET: FIG. 4; for Percent Repellency 2 h: 0.3 mg/cm^2, 2 h after application; for Percent Repellency 4 h: 0.3 mg/cm^2, 4 h after application
Source text: Olfactometer: A Fiensod and Spielman olfactometer, as modified by Bowen and Davis, measured the host-oriented flight response of female mosquitoes to volatile host emanations (Feinsod, F. M., and A. Spielman; An olfactometer for measuring host-seeking behavior of female Aedes aegypti (Diptera: Culicidae); J. Med. Entomol., 15: 282-285, 1979). The olfactometer (approximately 38 cm high) consisted of an upper and lower screened chamber with a closure between the chambers (FIG. 8). A fan placed above the upper chamber drew air through the apparatus at approximately 0.2 m/s. A temperature and humidity controlled chamber (5′ wide by 6′ long by 8′ high) was constructed to house the test subject and the olfactometer.
Rearing of Mosquitoes: A second environmental chamber, maintained at 27° C. and 80% humidity, was dedicated to the rearing of Aedes aegypti mosquitoes. Routine shipments of eggs (American Biological Supply, Gainesville, Fla.) were used to maintain a continuous supply of adult 5-10 day old mosquitoes.
Assays for Attraction of Mosquitoes to Human Subjects: A group of 30 volunteers, consisting of 14 females and 16 males and ranging in age from 24 to 68 years, was selected from the surrounding civilian population. Individuals were tested for their ability to attract Aedes aegypti mosquitoes contained in the olfactometer. Tests were conducted at a temperature of 27° C. and 50% relative humidity. For each trial 15 avid adult female Aedes aegypti mosquitoes (5-10 days post-emergence) were placed in the upper chamber. A small fan was placed on top of the upper chamber to cause an air flow from the lower chamber to the upper chamber. A trial began when the closure between the upper and lower chamber was opened in the absence of a human host. The number of mosquitoes entering the lower chamber within a 3 minute period was recorded. The volunteer then placed his or her arm beneath the lower chamber and the number of mosquitoes flying from the upper chamber to the lower chamber was recorded for the time intervals 0-1, 1-3, 3-5 and 5-7 minutes. This trial was repeated twice during a test session to obtain three replicates. Two additional test sessions, at time intervals of at least 1 week, were conducted to obtain at least 8-9 replicates for each of 24 subjects. Of the remaining 6 subjects, 3 were tested on two separate occasions for a total of 6 replicates per subject; 3 were tested on one occasion for a total of 3 replicates per subject. A total of 254 tests were conducted.
Test compounds were dissolved in acetone or ethanol at a concentration of 300 mg/5 cc. Ethanol solutions of carboxylic acids were prepared just prior to use. Three hundred and fifty microliters of these solutions were applied to a 70 cm^2 rectangular area of the forearm. The resultant dose was 0.3 mg/cm^2. The repellent treated area was allowed to dry for 5 minutes prior to test. The treated skin area was placed under the olfactometer and tests were conducted as described in the preceding paragraph, “Assays for attraction of mosquitoes to human subjects”. Percent repellency was determined from the fraction of mosquitoes entering the lower chamber over a seven minute period.
A commercial formulation of DEET (Skintastic, S. C. Johnson, Racine,) was applied to a 100 cm^2 area on the forearm of 1 volunteer (subject 02) to give a dose of 0.3 mg/cm^2 of DEET. A formulation of C8C9C10 (5% octanoic, 5% nonanoic, 5% decanoic in Dow Corning 345 volatile silicone fluid) was applied to a 100 cm^2 on the subject's other arm to give a dose of 0.3 mg/cm^2 total acids. Application sites were placed under the olfactometer at 1, 2 and 4 hours after treatment. Untreated areas on each arm were placed under the olfactometer at the completion of the treated area tests to check the avidity of the mosquitoes. Tests were done on four separate test days. […]

[4] = Vapor pressure; type: physicochemical; conditions: at 125° C., estimated or extrapolated from literature values
[5] = tested on: Aedes aegypti mosquitoes; assay: Mosquito repellency on skin (olfactometer, human forearm); type: in vivo; conditions: on skin
[6] = rabbit, in vivo; cited from earlier work
[7] = tested on: yellow fever mosquito (Aedes aegypti (L.)); conditions: human skin, approximately 2 mg/cm^2, time until two bites; DEET from Gilbert 1957; cited from earlier work
[8] = tested on: malaria mosquito (Anopheles quadrimaculatus Say); conditions: human skin, approximately 2 mg/cm^2, time until two bites; cited from earlier work
[9] = cited from earlier work
[10] = cited from earlier work; remark: listed apart in the source
[11] = tested on: Aedes aegypti; conditions: King 1954; cited from earlier work

Compound: CCCCCCCCCC=CC(=O)O [2-Dodecenoic Acid]
- Protection time against Aedes aegypti mosquitoes [1]: 2 h

Compound: CCCCCCC=CC(=O)O [2-Nonenoic Acid]
- Protection time against Aedes aegypti mosquitoes [1]: 2 h

Compound: CCCCCC=CC(=O)O [2-Octenoic acid, 2-Octenoic Acid]
- pest or weed control at 0.3 mg/cm2 [2]: 97 ± 5%
- repellency immediately after application to skin, compared to DEET [3]: less repellent
- Percent Repellency 2 h ([3]; on skin): 29 (1) %
- Percent Repellency 4 h ([3]; on skin): 27 (1) %
- Vol. (vapor pressure), (est) [4]: 10.8 mm Hg

Compound: CCC=CC(=O)O [2-Pentenoic acid, 2-Pentenoic Acid]
- pest or weed control at 0.3 mg/cm2 [2]: 100%
- Vol. (vapor pressure), (est) [4]: 92 mm Hg

Compound: CCCCCC(C)=CC(=O)O [3-Methyl-2-octenoic acid]
- Percent Repellency 2 h ([5]; 0.6 mg/cm^2, 2 h after application): 73% (1)
- Percent Repellency 4 h ([5]; 0.6 mg/cm^2, 4 h after application): 40 (1) %
- pest or weed control at 0.3 mg/cm2 [2]: 95%
- repellency immediately after application to skin, compared to DEET [3]: less repellent
- Percent Repellency 2 h ([3]; on skin): 40 ± 5 (3) %
- Percent Repellency 4 h ([3]; on skin): 47 ± 21%
- Percent Repellency 8 h ([3]; on skin, 0.3 mg/cm^2, 8 h after application): 60%
- Vol. (vapor pressure), (est) [4]: 6 (est) mm Hg

Compound: CCC(C)=CC(=O)O [3-Methyl-2-pentenoic acid, 3-Methyl-2-pentenoic Acid]
- pest or weed control at 0.3 mg/cm2 [2]: 65%
- Vol. (vapor pressure), (est) [4]: 49.5 mm Hg

Compound: CCC(C)CC(=O)O (stereo not drawn) [3-Methylpentanoic Acid]
- pest or weed control at 0.3 mg/cm2 [2]: 43 ± 14%
- Vol. (vapor pressure), (est) [4]: 49.5 mm Hg

Compound: CCCCC/C=C\C/C=C\C/C=C\C/C=C\CCCC(=O)O [Arachidonic Acid]
- Protection time against Aedes aegypti mosquitoes [1]: <0.25 h

Compound: CCCCCCCCCC(=O)O [Decanoic acid]
- Skin irritation [6]: moderate to severe irritation
- Protection time against yellow fever mosquitoes [7]: 300+ min.
- Protection time against malaria mosquitoes [8]: 61 to 90 min
- pest or weed control at 0.3 mg/cm2 [2]: 93 to 100%
- Percent Repellency 2 h ([3]; on skin): 53 (1) %
- Percent Repellency 4 h ([3]; on skin): 73 (1) %

Compound: CCCCCCCCCCCC(=O)O [Dodecanoic acid]
- Vol. (vapor pressure), (est) [4]: 0.57 mm Hg

Compound: CCCCCCC(=O)O [Ethanthic, ethanthic acid, reference compound]
- Protection time against yellow fever mosquitoes [7]: 121 to 180 min
- Protection time against malaria mosquitoes [8]: 90+ min.

Compound: CCCCC/C=C\C/C=C\CCCCCCCC(=O)O [Linoleic Acid]
- Protection time against Aedes aegypti mosquitoes [1]: <0.25 h

Compound: CCCCCCCCC(=O)O [Nonanoic acid]
- Irritation or sensitization reactions ([9]; in vivo): no irritation or sensitization reactions
- Skin irritation [6]: moderate irritation
- Erythema ([10]; in vivo): Erythema was observed
- Protection time against yellow fever mosquitoes [7]: 180+ min.
- Protection time against malaria mosquitoes [8]: 31 to 60 min
- pest or weed control at 0.3 mg/cm2 [2]: 93 to 100%
- repellency two hours after skin application, ranking ([3]; FIG. 5): highest repellency
- Percent Repellency 2 h ([3]; on skin): 66 (1) %
- Percent Repellency 4 h ([3]; on skin): 47 (1) %

Compound: CCCCCCCC(=O)O [Octanoic acid]
- Irritation or sensitization reactions ([9]; 1% in petrolatum, skin of human subjects): no irritation or sensitization reactions
- Skin irritation [6]: moderate to severe irritation
- Erythema ([10]; repeated applications of 0.5 M propanol solutions, occlusive, human males): Erythema was observed
- pest or weed control at 0.3 mg/cm2 [2]: 87 ± 1%
- repellency immediately after application to skin, compared to DEET [3]: comparable to DEET
- Percent Repellency 2 h ([3]; on skin): 36 (1) %
- Percent Repellency 2 h ([3]; on skin, listed as octanoic acid): 36%

Compound: CCCCCCCC/C=C\CCCCCCCC(=O)O [Oleic Acid]
- Protection time against Aedes aegypti mosquitoes [1]: <0.25 h

Compound: CCCCCCCCCCC(=O)O [Undecanoic acid]
- Protection time against yellow fever mosquitoes [7]: 300+ min.
- Protection time against malaria mosquitoes [8]: 90+ min.
- pest or weed control at 0.3 mg/cm2 [2]: 93 to 100%
- Vol. (vapor pressure), (est) [4]: 1.5 (est) mm Hg

Compound: C=CCCCCCCCCC(=O)O [Undecylenic Acid]
- Protection time against Aedes aegypti mosquitoes [1]: 3.5 h

Compound: O=C1CCCCN1 [Valerolactam]
- pest or weed control at 0.3 mg/cm2 [2]: 20%

Compound: O=C(c1ccccc1)c1ccccc1 [benzophenone]
- repellent to Aedes aegypti [11]: repellent

Compound: CC(C)OC(=O)CCCCC(=O)OC(C)C [diisopropyl adipate]
- repellent to Aedes aegypti [11]: repellent
